This is an account of results in ChEMBL document CHEMBL1129858, “Antitumor agents. 1771. Design, syntheses, and biological evaluation of novel etoposide analogs bearing pyrrolecarboxamidino group as DNA topoisomerase II inhibitors” (1997).

For one experiment, the system named is ACHN. The experiment is described as follows: Tested for the in vitro cytotoxicity against ACHN renal cancer cell line. It is filed as functional, Homo sapiens.
The subject of another experiment is DU-145. The experiment is described as follows: Tested for the in vitro cytotoxicity against DU-145 prostate cancer cell line. The class given is functional, Homo sapiens.
Another experiment concerns HCC 2998. Nature of the experiment: Tested for the in vitro cytotoxicity against HCC2998 colon cancer cell lines. The class given is functional, Homo sapiens.
For the next experiment, the system named is M14. The experiment is described as follows: Tested for the in vitro cytotoxicity against M-14 melanoma. It is filed as functional, Homo sapiens.
The test system of a further experiment is MCF7. Nature of the experiment: Tested for the in vitro cytotoxicity against MCF-7 breast cancer cell line. It is filed as functional, Homo sapiens.
In another experiment the test system is MOLT-4. The experiment is described as follows: Tested for the in vitro cytotoxicity against MOLT-4 leukemia cell line. The class given is functional, Homo sapiens.
The subject of another experiment is OVCAR-8. Nature of the experiment: Tested for the in vitro cytotoxicity against OVCAR-8 ovarian cancer cell lines,. The class given is functional, Homo sapiens.
The subject of a further experiment is NCI-H23. Nature of the experiment: Tested for the in vitro cytotoxicity against NCI-H23 non-small cell lung cancer cell line. The class given is functional, Homo sapiens.
Another experiment has as its system SF-295. The experiment is described as follows: Tested for the in vitro cytotoxicity against SF-295 CNS tumor cell lines. The class given is functional, Homo sapiens.
Experiment [1] in a line: Average in vitro cytotoxicity was calculated from all cell lines tested,. It is filed as functional.
Experiment [2] is described as follows: Average in vitro cytotoxicity was calculated from all cell lines tested. It is filed as functional.
Experiment [3] in a line: Average in vitro cytotoxicity was calculated from all cell lines tested, activity expressed as average log TGI50. It is filed as functional. As to conditions: read-out: Log TGI (converted).
Experiment [4] deals with DNA topoisomerase II (Homo sapiens) (UniProt P11388+Q02880). Nature of the experiment: Tested for the inhibition of DNA topoisomerase II. It is filed as protein assay.
The subject of experiment [5] is KB. The experiment is described as follows: Tested for the cytotoxicity against KB cells; ID50/LD50 = 0.08/>10. It is filed as functional, cell-based. As to conditions: Homo sapiens.
For experiment [6], the system named is KB. Nature of the experiment: Tested for the cellular protein DNA complex formation in KB cells at concentration of 25 uM. It is filed as functional, Homo sapiens.
Experiment [7] deals with KB. The experiment is described as follows: Tested for the cytotoxicity against KB-7d cellsTested for the cytotoxicity against KB cells; ID50/LD50 = 0.2/>10. It is filed as functional, cell-based.
Experiment [8] concerns KB. The experiment is described as follows: Tested for the cellular protein DNA complex formation in KB cells at the concentration of 2.5 uM.
Experiment [9] has as its system KB. Nature of the experiment: Tested for the cellular protein DNA complex formation in KB cells at the concentration of 2.5 uM. It is filed as functional, Homo sapiens.
The test system of experiment [10] is KB. The experiment is described as follows: Tested for the cellular protein DNA complex formation in KB cells at concentration of 2.5 uM. It is filed as functional, Homo sapiens.

What is called GI50 is the concentration giving 50% growth inhibition. The term LC50 denotes the concentration that kills 50% of the test population. What is called TGI is the concentration at which net growth stops.

For `CNCCN[C@@H]1c2cc3c(cc2[C@@H](c2cc(OC)c(O)c(OC)c2)[C@H]2C(=O)OC[C@@H]21)OCO3`, the GI50 in the experiment on ACHN (Homo sapiens, ACHN) was 66.1 nM; with DU-145 (Homo sapiens, DU-145) it was 363 nM; with HCC 2998 (Homo sapiens, HCC 2998), 269 nM; in the experiment on M14 (Homo sapiens, M14) it was 398 nM; in the experiment on MCF7 (Homo sapiens, MCF7), 14.4 nM; in the experiment with MOLT-4 (Homo sapiens, MOLT-4), less than 10 nM. The GI50 was 309 nM with OVCAR-8 (Homo sapiens, OVCAR-8); 162 nM with NCI-H23 (Homo sapiens, NCI-H23); 29.5 nM with SF-295 (Homo sapiens, SF-295); 240 nM in [1]. For the same compound, the LC50 in [2] is 38900 nM. Besides, the TGI in experiment [3] was 3020 nM.
Take `COc1cc([C@@H]2c3cc4c(cc3[C@@H](NCCNCCO)[C@H]3COC(=O)[C@H]23)OCO4)cc(OC)c1O` [listing 1 of 2 here]: the GI50 in the experiment on ACHN was 2340 nM; in the experiment on DU-145 (Homo sapiens, DU-145), 2750 nM; in the experiment with HCC 2998 (Homo sapiens, HCC 2998), 1260 nM; with M14 (Homo sapiens, M14), 3980 nM; in the experiment with MCF7, 38.9 nM; in the experiment with MOLT-4, less than 10 nM. Besides, the GI50 in the experiment on OVCAR-8 (Homo sapiens, OVCAR-8) was 2630 nM; with NCI-H23 (Homo sapiens, NCI-H23) it was 1320 nM; in the experiment with SF-295, 178 nM; in [1], 1350 nM. Besides, in experiment [2], the LC50 is 66100 nM. Moreover, in experiment [3], the TGI is 12000 nM.
Regarding `COc1cc([C@@H]2c3cc4c(cc3[C@@H](Nc3ccc(NC(=O)c5cc(NC(=O)c6cc([N+](=O)[O-])cn6C)cn5C)cc3)[C@H]3COC(=O)[C@H]23)OCO4)cc(OC)c1O`, the GI50 with ACHN (Homo sapiens, ACHN) is 229 nM; in the experiment with DU-145 (Homo sapiens, DU-145), 372 nM; in the experiment with HCC 2998 (Homo sapiens, HCC 2998), 6030 nM; in the experiment on M14 (Homo sapiens, M14), 5500 nM; in the experiment on MCF7 (Homo sapiens, MCF7) it was 47.9 nM; in the experiment on MOLT-4 (Homo sapiens, MOLT-4) it was less than 10 nM. Besides, the GI50 in the experiment with OVCAR-8 (Homo sapiens, OVCAR-8) was 759 nM; in the experiment on NCI-H23 (Homo sapiens, NCI-H23), 724 nM; with SF-295 (Homo sapiens, SF-295), 4900 nM; in experiment [1] it was 1170 nM. The same compound displayed an IC100 in [4] of 100 µM. Besides, in the experiment with KB [5], the Cytotoxicity entry is recorded as “ID50/LD50 = 0.08/>10”. For the same compound, the Activity in the experiment on KB [6] worked out at 26%; in the experiment with KB [8] it was 30%. Besides, the LC50 in [2] is 81300 nM. The TGI in [3] is 28800 nM. Also, in the experiment on KB [7], the Ratio result is listed as “ID50/LD50 = 0.2/>10”.
Take `COc1cc([C@@H]2c3cc4c(cc3[C@@H](Nc3ccc(NC(=O)c5cc([N+](=O)[O-])cn5C)cc3)[C@H]3COC(=O)[C@H]23)OCO4)cc(OC)c1O` [listing 1 of 3 here]: the GI50 in the experiment on ACHN was 14.1 nM; with DU-145, 14.4 nM; in the experiment on HCC 2998 it was 245 nM; with M14 it was 63.1 nM; with OVCAR-8, 126 nM; in the experiment with NCI-H23, 38.9 nM. For the same compound, the results for the GI50 (with SF-295; in experiment [1]) were 138 nM and 100 nM, respectively. Further, the TGI in experiment [3] is 525 nM.
On to `COc1cc([C@@H]2c3cc4c(cc3[C@@H](O[C@@H]3O[C@@H]5CO[C@@H](C)O[C@H]5[C@H](O)[C@H]3O)[C@H]3COC(=O)[C@H]23)OCO4)cc(OC)c1O` [ETOPOSIDE], for which the GI50 in the experiment on ACHN (Homo sapiens, ACHN) is 871 nM; in the experiment on DU-145 (Homo sapiens, DU-145), 851 nM; in the experiment on HCC 2998 (Homo sapiens, HCC 2998), 18200 nM; in the experiment with M14 (Homo sapiens, M14), 813 nM; with MCF7 (Homo sapiens, MCF7), 4370 nM; with MOLT-4 (Homo sapiens, MOLT-4) it was 1020 nM. Also, the GI50 with OVCAR-8 (Homo sapiens, OVCAR-8) is 16600 nM; in the experiment on NCI-H23 (Homo sapiens, NCI-H23), 8320 nM; in the experiment with SF-295 (Homo sapiens, SF-295), 10000 nM; in experiment [1] it was 9770 nM. Further, the IC100 in experiment [4] turned out to be 100 µM. In addition, the Activity in the experiment on KB [6] and with KB [9] was 100% throughout. For the same compound, the TGI in experiment [3] is 77600 nM.
For `COc1cc([C@@H]2c3cc4c(cc3[C@@H](NCCNCCO)[C@H]3COC(=O)[C@H]23)OCO4)cc(OC)c1O` [listing 2 of 2 here], the GI50 in the experiment with ACHN is 339 nM; in the experiment on DU-145, 2290 nM; in the experiment with HCC 2998 it was 3390 nM; in the experiment on M14 it was 4070 nM; in the experiment with MCF7, 95.5 nM; in the experiment with MOLT-4 it was 26.9 nM. The GI50 is 2400 nM in the experiment on OVCAR-8, 661 nM in the experiment on NCI-H23, 1020 nM in the experiment with SF-295 and 1860 nM in experiment [1]. In experiment [2], the LC50 was 83200 nM. In addition, in experiment [3], the TGI was 21400 nM.
Take `COc1cc([C@@H]2c3cc4c(cc3[C@@H](Nc3ccc(NC(=O)c5cc([N+](=O)[O-])cn5C)cc3)[C@H]3COC(=O)[C@H]23)OCO4)cc(OC)c1O` [listing 2 of 3 here]: the GI50 is 11.8 nM in the experiment with ACHN (Homo sapiens, ACHN); 17 nM in the experiment with DU-145 (Homo sapiens, DU-145); 224 nM with HCC 2998 (Homo sapiens, HCC 2998); 45.7 nM with M14 (Homo sapiens, M14); less than 10 nM in the experiment on MCF7 (Homo sapiens, MCF7); less than 10 nM in the experiment on MOLT-4 (Homo sapiens, MOLT-4). The GI50 is 97.7 nM in the experiment with OVCAR-8 (Homo sapiens, OVCAR-8); 49 nM with NCI-H23 (Homo sapiens, NCI-H23); 51.3 nM in the experiment on SF-295; 123 nM in experiment [1]. Moreover, the Activity worked out at 225% in the experiment on KB [10] and 100% in the experiment on KB [6]. Also, the TGI in experiment [3] was 1950 nM.
Take `COc1cc([C@@H]2c3cc4c(cc3[C@@H](NC(=O)NO)[C@H]3COC(=O)[C@H]23)OCO4)cc(OC)c1O`: the GI50 with ACHN (Homo sapiens, ACHN) is 6030 nM; with DU-145 (Homo sapiens, DU-145) it was 7240 nM; in the experiment with HCC 2998 (Homo sapiens, HCC 2998) it was 4070 nM; in the experiment with M14 (Homo sapiens, M14) it was 37200 nM; in the experiment with MCF7 (Homo sapiens, MCF7) it was 7760 nM; with MOLT-4 (Homo sapiens, MOLT-4) it was 4900 nM. Also, the GI50 is 34700 nM with OVCAR-8 (Homo sapiens, OVCAR-8); 9330 nM in the experiment on NCI-H23 (Homo sapiens, NCI-H23); 5010 nM in the experiment on SF-295 (Homo sapiens, SF-295); 9770 nM in experiment [1]. Besides, in [2], the LC50 is 100000 nM. Also, the TGI in [3] was 93300 nM.
In experiment [4], `COc1cc([C@@H]2c3cc4c(cc3[C@@H](Nc3ccc(NC(=O)c5cc([N+](=O)[O-])cn5C)cc3)[C@H]3COC(=O)[C@H]23)OCO4)cc(OC)c1O` [listing 3 of 3 here] came in with an IC100 of 12.5 µM.
